These results are taken from paper PMC3163001 (Organic letters, 2011).

In this assay the target is SylD-CA (Pseudomonas syringae, UniProt Q83Y48). Put plainly: ATP-PPi radioactivity exchange assay. It counts as biochemical. To be noted: reversible adenylation.

Consider `NCCCC[C@H](N)C(=O)O` [L-lysine], for which the “ATP-PPi radioactivity exchange assay” value is on record as “L-lysine was reversibly adenylated at a much slower rate”.

For the compound `NCC/C=C/[C@H](N)C(=O)O` [L-3,4-dehydrolysine], the “ATP-PPi radioactivity exchange assay” value (preferred substrate of the A domain) is on record as “As expected L-3,4-dhl was preferentially reversibly adenylated”.
